{"source": "paper PMC7037682", "about": "“Herb–Drug Interaction of Red Ginseng Extract and Ginsenoside Rc with Valsartan in Rats” (Molecules, 2020)", "key": {"CYP2C9": {"test_system": "CYP2C9", "design": "method as in PMID 30078466", "conditions": "cited from earlier work"}, "OATP1B1 [1]": {"test_system": "OATP1B1", "conditions": "cited from earlier work"}, "OATP1B3 [2]": {"test_system": "OATP1B3", "conditions": "cited from earlier work"}, "OATP1B3 [3]": {"biological_target": "T1, OATP1B3 (Homo sapiens, UniProt Q9NPD5)", "T1 sequence (Q9NPD5 1-702)": "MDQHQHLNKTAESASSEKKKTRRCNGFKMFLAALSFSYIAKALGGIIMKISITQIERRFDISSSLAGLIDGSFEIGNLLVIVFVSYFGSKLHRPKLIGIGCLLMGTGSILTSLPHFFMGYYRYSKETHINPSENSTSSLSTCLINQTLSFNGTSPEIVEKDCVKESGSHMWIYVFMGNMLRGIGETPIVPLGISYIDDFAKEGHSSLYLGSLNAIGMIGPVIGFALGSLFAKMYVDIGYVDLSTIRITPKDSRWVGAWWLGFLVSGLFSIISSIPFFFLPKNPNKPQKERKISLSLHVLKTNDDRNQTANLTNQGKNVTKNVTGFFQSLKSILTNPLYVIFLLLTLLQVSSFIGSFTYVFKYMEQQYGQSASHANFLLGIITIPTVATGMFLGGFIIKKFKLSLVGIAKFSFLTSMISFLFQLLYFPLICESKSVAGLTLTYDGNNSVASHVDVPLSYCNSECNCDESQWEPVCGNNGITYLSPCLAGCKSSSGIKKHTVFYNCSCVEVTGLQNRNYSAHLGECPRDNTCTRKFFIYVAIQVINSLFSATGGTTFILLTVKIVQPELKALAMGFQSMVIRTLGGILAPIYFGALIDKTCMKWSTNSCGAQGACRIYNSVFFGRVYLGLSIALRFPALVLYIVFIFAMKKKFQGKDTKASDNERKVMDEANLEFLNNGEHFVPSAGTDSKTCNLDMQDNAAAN", "test": "Inhibition of OATP1B3-mediated valsartan uptake in HEK293-OATP1B3 cells", "assay_type": "cell-based", "design": "host or cells: HEK293", "conditions": "5 μM valsartan, 5 min", "experimental": "(§1) Transporter mediated uptake of probe substrates or valsartan was calculated by subtracting the uptake rate of probe substrates or valsartan into HEK293-mock cells from that into HEK293 cells expressing respective transporters."}, "OATP1B1 [4]": {"biological_target": "T2, OATP1B1 (Homo sapiens, UniProt Q9Y6L6)", "T2 sequence (Q9Y6L6 1-691)": "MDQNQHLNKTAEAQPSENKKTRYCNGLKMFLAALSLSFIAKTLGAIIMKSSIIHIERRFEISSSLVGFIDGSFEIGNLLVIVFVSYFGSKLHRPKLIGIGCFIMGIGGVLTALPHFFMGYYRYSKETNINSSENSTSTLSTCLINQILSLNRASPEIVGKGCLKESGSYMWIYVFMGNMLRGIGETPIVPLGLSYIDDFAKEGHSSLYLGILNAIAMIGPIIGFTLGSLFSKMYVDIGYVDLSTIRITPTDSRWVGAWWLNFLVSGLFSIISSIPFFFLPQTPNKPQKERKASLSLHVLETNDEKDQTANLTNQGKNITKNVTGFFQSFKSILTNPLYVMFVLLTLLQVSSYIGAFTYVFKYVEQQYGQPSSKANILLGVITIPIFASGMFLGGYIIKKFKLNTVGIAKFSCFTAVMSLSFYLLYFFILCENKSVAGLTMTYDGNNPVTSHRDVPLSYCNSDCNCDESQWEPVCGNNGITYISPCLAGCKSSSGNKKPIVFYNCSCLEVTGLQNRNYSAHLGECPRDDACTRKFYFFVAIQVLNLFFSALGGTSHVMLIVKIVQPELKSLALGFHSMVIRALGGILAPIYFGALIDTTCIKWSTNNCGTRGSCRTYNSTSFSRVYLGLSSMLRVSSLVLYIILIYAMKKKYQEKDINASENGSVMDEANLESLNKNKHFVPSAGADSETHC", "test": "Inhibition of OATP1B1-mediated valsartan uptake in HEK293-OATP1B1 cells", "assay_type": "cell-based", "design": "host or cells: HEK293", "conditions": "5 μM valsartan, 5 min", "experimental": "as §1"}, "[5]": {"test": "Plasma and liver distribution of Rc in rats after iv injection", "assay_type": "in vivo, rat", "experimental": "The rats were injected with Rc solution (3 mg/mL/kg, dissolved in saline) via the tail vein. Blood samples were collected from the abdominal artery, and the liver tissue was immediately excised, gently washed with ice-cold saline, and weighed after the rats were euthanized at 2, 12, and 48 h after intravenous injection of Rc. The blood samples were centrifuged (16,000× g, 10 min, 4 °C) and the liver tissue samples were homogenized with four volumes of saline. Aliquots (50 μL each) of plasma and liver homogenates were stored at −80 °C until the analysis of the ginsenoside Rc."}, "[6]": {"test": "Plasma pharmacokinetics of Rc in rats after repeated iv injection", "assay_type": "in vivo", "conditions": "rat plasma, Rc 3 mg/kg/day iv for 5 days", "experimental": "The rats were randomly divided into the control and Rc groups. The Rc group was injected with Rc solution (3 mg/mL/kg, dissolved in saline) intravenously via the tail vein for 5 consecutive days. The control group received saline (1 mL/kg) for 5 consecutive days via the tail vein. After 1 h following the last Rc treatment, valsartan was injected intravenously via the femoral vein at 1 mg/kg."}, "UGT2B7": {"test_system": "UGT2B7", "design": "method as in PMID 27462006", "conditions": "cited from earlier work"}, "UGT1A3": {"test_system": "UGT1A3", "design": "method as in PMID 27462006", "conditions": "cited from earlier work"}}}
{"smiles": "CC(C)=CCC[C@](C)(O[C@@H]1O[C@H](CO[C@@H]2O[C@H](CO)[C@@H](O)[C@H](O)[C@H]2O)[C@@H](O)[C@H](O)[C@H]1O)[C@H]1CC[C@]2(C)[C@@H]1[C@H](O)C[C@@H]1[C@@]3(C)CC[C@H](O[C@@H]4O[C@H](CO)[C@@H](O)[C@H](O)[C@H]4O[C@@H]4O[C@H](CO)[C@@H](O)[C@H](O)[C@H]4O)C(C)(C)[C@@H]3CC[C@]12C", "note": "[Rb1, ginsenoside Rb1]", "values": [{"measurement": "IC50", "setting": "CYP2C9", "result": 2.4, "unit": "µM"}, {"measurement": "IC50", "setting": "OATP1B1 [1]", "result": 33.2, "unit": "µM"}, {"measurement": "IC50", "setting": "OATP1B3 [2]", "result": 4.8, "unit": "µM"}, {"measurement": "IC50", "setting": "OATP1B3 [3]", "result": 4.1, "unit": "µM"}, {"measurement": "IC50", "setting": "OATP1B1 [4]", "result": 24.1, "unit": "µM"}]}
{"smiles": "CC(C)=CCC[C@](C)(O[C@@H]1O[C@H](CO[C@@H]2OC[C@H](O)[C@H](O)[C@H]2O)[C@@H](O)[C@H](O)[C@H]1O)[C@H]1CC[C@]2(C)[C@@H]1[C@H](O)C[C@@H]1[C@@]3(C)CC[C@H](O[C@@H]4O[C@H](CO)[C@@H](O)[C@H](O)[C@H]4O[C@@H]4O[C@H](CO)[C@@H](O)[C@H](O)[C@H]4O)C(C)(C)[C@@H]3CC[C@]12C", "note": "[Rb2, ginsenoside Rb2]", "values": [{"measurement": "IC50", "setting": "OATP1B3 [3]", "result": 5.1, "unit": "µM"}, {"measurement": "IC50", "setting": "OATP1B1 [4]", "result": 8.8, "unit": "µM"}]}
{"smiles": "CC(C)=CCC[C@](C)(O[C@@H]1O[C@H](CO[C@@H]2O[C@@H](CO)[C@H](O)[C@H]2O)[C@@H](O)[C@H](O)[C@H]1O)[C@H]1CC[C@]2(C)[C@@H]1[C@H](O)C[C@@H]1[C@@]3(C)CC[C@H](O[C@@H]4O[C@H](CO)[C@@H](O)[C@H](O)[C@H]4O[C@@H]4O[C@H](CO)[C@@H](O)[C@H](O)[C@H]4O)C(C)(C)[C@@H]3CC[C@]12C", "note": "[Rc, ginsenoside Rc]", "values": [{"measurement": "free Rc concentration in rat liver", "setting": "[5]; estimated from concentration and protein binding", "result": "0.07 to 0.14", "unit": "µM"}, {"measurement": "Kp", "setting": "[5]; rat, liver (versus plasma), rats, Rc 3 mg/kg iv, 2, 12 and 48 h, read-out: liver-to-plasma concentration ratio", "result": "0.13 to 0.2"}, {"measurement": "IC50", "setting": "OATP1B3 [3]", "result": 1.9, "unit": "µM"}, {"measurement": "IC50", "setting": "OATP1B1 [4]", "result": 13.6, "unit": "µM"}, {"measurement": "AUC(0-inf)", "setting": "[6]", "result": "1060 ± 325", "unit": "µM·h"}, {"measurement": "C0", "setting": "[6]", "result": "34 ± 5.22", "unit": "µM"}, {"measurement": "MRT", "setting": "[6]", "result": "38.5 ± 5.11", "unit": "h"}, {"measurement": "half-life", "setting": "[6]", "result": "27.5 ± 4.26", "unit": "h"}, {"measurement": "AUC(0-t)", "setting": "[6]; read-out: AUC24h", "result": "749 ± 185", "unit": "µM·h"}]}
{"smiles": "CC(C)=CCC[C@](C)(O)[C@H]1CC[C@]2(C)[C@@H]1[C@H](O)C[C@@H]1[C@@]3(C)CC[C@H](O[C@@H]4O[C@H](CO)[C@@H](O)[C@H](O)[C@H]4O[C@@H]4O[C@H](CO)[C@@H](O)[C@H](O)[C@H]4O)C(C)(C)[C@@H]3CC[C@]12C", "note": "[Rg3, ginsenoside Rg3]", "values": [{"measurement": "IC50", "setting": "UGT2B7", "result": 23.1, "unit": "µM"}, {"measurement": "IC50", "setting": "UGT1A3", "result": 20.9, "unit": "µM"}]}
{"smiles": "CC(C)=CCC[C@](C)(O)[C@H]1CC[C@]2(C)[C@@H]1[C@H](O)C[C@@H]1[C@@]3(C)CC[C@H](O[C@@H]4O[C@H](CO)[C@@H](O)[C@H](O)[C@H]4O)C(C)(C)[C@@H]3CC[C@]12C", "note": "[Rh2, ginsenoside Rh2]", "values": [{"measurement": "IC50", "setting": "UGT1A3", "result": 37.9, "unit": "µM"}]}
